Assay results: patent US10681909B2, “Herbicidal triazoles” (FMC Corporation, priority 2014, dated 2020)

How the values were obtained:
[1] = tested on: kochia; assay: Test A preemergence; type: in vivo, Kochia scoparia; conditions: 0 to 100 scale (0 no effect, 100 complete control)
Method in brief: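 Visual 0–100 ratings (0 no effect, 100 complete control) made roughly 10 days after treatment, comparing greenhouse-grown plants to untreated controls. Formulated test chemicals, with surfactant, went either as directed soil spray at planting or onto 2–10 cm seedlings bearing one to two leaves.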

[2] = tested on: pigweed; assay: Test C preemergence; type: in vivo, Amaranthus retroflexus; conditions: for Plant response rating (scale of 0 to 100 where 0 is no effect and 100 is complete control): Pigweed, preemergence; for Pigweed plant response rating (0 to 100): Preemergence, visual rating after 13 to 15 d
Text: (§1) Seeds of plant species selected from blackgrass (Alopecurus myosuroides), ryegrass, Italian (Italian ryegrass, Lolium multiflorum), wheat (winter wheat, Triticum aestivum), galium (catchweed bedstraw, Galium aparine), corn (Zea mays), crabgrass, large (large crabgrass, Digitaria sanguinalis), foxtail, giant, (giant foxtail, Setaria faberii), johnsongrass (Sorghum halepense), lambsquarters (Chenopodium album), morningglory (Ipomoea coccinea), nutsedge, yellow (yellow nutsedge, Cyperus esculentus), pigweed (Amaranthus retroflexus), ragweed (common ragweed, Ambrosia elatior), soybean (Glycine max), barnyardgrass (Echinochloa crus-galli), oilseed rape (Brassica napus), waterhemp (common waterhemp, Amaranthus rudis), and velvetleaf (Abutilon theophrasti) were planted into a blend of loam soil and sand and treated preemergence with test chemicals formulated in a non-phytotoxic solvent mixture which included a surfactant. At the same time, plants selected from these crop and weed species and also chickweed (common chickweed, Stellaria media), oat, wild (wild oat, Avena fatua), and kochia (Kochia scoparia), were planted in pots containing Sunshine Redi-Earth® planting medium comprising spaghnum peat moss, vermiculite, starter nutrients and dolomitic limestone and treated with postemergence applications of test chemicals formulated in the same manner. Plants ranged in height from 2 to 18 cm (1- to 4-leaf stage) for postemergence treatments. […] A dash (-) response means no test result.

[3] = tested on: oilseed rape; assay: Test C preemergence; type: in vivo, Brassica napus; conditions: for Plant response rating (scale of 0 to 100 where 0 is no effect and 100 is complete control): Oilseed Rape, preemergence; for Oilseed Rape plant response rating (0 to 100): Preemergence, visual rating after 13 to 15 d
Text: as §1

[4] = tested on: field violet; assay: Test D preemergence; type: in vivo, Viola arvensis; conditions: for Plant response rating (0 to 100), Field Violet: 16 g ai/ha, 0 is no effect, 100 is complete control; for Plant response rating: Field Violet: scale 0 to 100
Text: (§2) Seeds of plant species selected from bluegrass (annual bluegrass, Poa annua), blackgrass (Alopecurus myosuroides), canarygrass (Phalaris minor), chickweed (common chickweed, Stellaria media), galium (catchweed bedstraw, Galium aparine), bromegrass, down (downy bromegrass, Bromus tectorum), Russian thistle (Salsola kali), field poppy (Papaver rhoeas), field violet (Viola arvensis), foxtail, green (green foxtail, Setaria viridis), deadnettle (henbit deadnettle, Lamium amplexicaule), ryegrass, Ital. (Italian ryegrass, Lolium multiflorum), kochia (Kochia scoparia), lambsquarters (Chenopodium album), oilseed rape (Brassica napus), pigweed (Amaranthus retroflexus), chamomile (scentless chamomile, Matricaria inodora), speedwell (bird's-eye speedwell, Veronica persica), barley, spring (spring barley, Hordeum vulgare), wheat, spring (spring wheat, Triticum aestivum), buckwheat, wild (wild buckwheat, Polygonum convolvulus), wild mustard (Sinapis arvensis), oat, wild (wild oat, Avena fatua), radish, wild (wild radish, Raphanus raphanistrum), […]), barley, winter (winter barley, Hordeum vulgare), and wheat, winter (winter wheat, Triticum aestivum) were planted into a silt loam soil and treated preemergence with test chemicals formulated in a non-phytotoxic solvent mixture which included a surfactant. At the same time, these species were planted in pots containing Sunshine Redi-Earth® planting medium comprising spaghnum peat moss, vermiculite, starter nutrients and dolomitic limestone and treated with postemergence applications of the test chemicals formulated in the same manner. Plants ranged in height from 2 to 18 cm (1- to 4-leaf stage). Treated plants and controls were maintained in a controlled growth environment for 14 to 21 d after which time all species were compared to controls and visually evaluated. […] A dash (-) response means no test result.

[5] = tested on: kochia; assay: Test D preemergence; type: in vivo, Kochia scoparia; conditions: for Plant response rating (0 to 100), Kochia: 16 g ai/ha, 0 is no effect, 100 is complete control; for Plant response rating: Kochia: scale 0 to 100
Text: as §2

[6] = tested on: lambsquarters; assay: Test D preemergence; type: in vivo, Chenopodium album; conditions: for Plant response rating (0 to 100), Lambsquarters: 16 g ai/ha, 0 is no effect, 100 is complete control; for Plant response rating: Lambsquarters: scale 0 to 100
Text: as §2

[7] = tested on: speedwell; assay: Test D preemergence; type: in vivo, Veronica persica; conditions: for Plant response rating (0 to 100), Speedwell: 16 g ai/ha, 0 is no effect, 100 is complete control; for Plant response rating: Speedwell: scale 0 to 100
Text: as §2

[8] = tested on: wild mustard; assay: Test D preemergence; type: in vivo, Sinapis arvensis; conditions: for Plant response rating (0 to 100), Mustard, Wild: 16 g ai/ha, 0 is no effect, 100 is complete control; for Plant response rating: Mustard, Wild: scale 0 to 100
Text: as §2

[9] = tested on: blackgrass; assay: Test D postemergence; type: in vivo, Alopecurus myosuroides; conditions: scale 0 to 100
Text: as §2

[10] = tested on: Russian thistle; assay: Test D postemergence; type: in vivo, Salsola kali; conditions: scale 0 to 100
Text: as §2

[11] = tested on: field poppy; assay: Test D postemergence; type: in vivo, Papaver rhoeas; conditions: scale 0 to 100
Text: as §2

[12] = tested on: oat, wild; assay: Test D postemergence; type: in vivo, Avena fatua; conditions: scale 0 to 100
Text: as §2

CCOc1nc(-c2ccc(C(F)(F)F)cc2)nn1Cc1ccnc(C(F)(F)F)c1 [Compound 35, 4-[[5-ethoxy-3-[4-(trifluoromethyl)phenyl]-1H-1,2,4-triazole-1-yl]methyl]-2-(trifluoromethyl)pyridine]
Plant response rating, Kochia ([1]; 31 g ai/ha): 90
Plant response rating, Kochia ([1]; 125 g ai/ha): 90
Plant response rating (scale of 0 to 100 where 0 is no effect and 100 is complete control) ([2]; 125 g ai/ha): 100
Plant response rating (scale of 0 to 100 where 0 is no effect and 100 is complete control) ([2]; 250 g ai/ha): 100
Pigweed plant response rating (0 to 100) ([2]; 31 g ai/ha): 98
Pigweed plant response rating (0 to 100) ([2]; 62 g ai/ha): 100
Plant response rating (scale of 0 to 100 where 0 is no effect and 100 is complete control) ([3]; 125 g ai/ha): 90
Plant response rating (scale of 0 to 100 where 0 is no effect and 100 is complete control) ([3]; 250 g ai/ha): 90
Oilseed Rape plant response rating (0 to 100) ([3]; 31 g ai/ha): 80
Oilseed Rape plant response rating (0 to 100) ([3]; 62 g ai/ha): 75
Plant response rating (0 to 100), Field Violet [4]: 95
Plant response rating: Field Violet ([4]; 62 g ai/ha): 100
Plant response rating: Field Violet ([4]; 125 g ai/ha): 100
Plant response rating (0 to 100), Kochia [5]: 90
Plant response rating: Kochia ([5]; 62 g ai/ha): 90
Plant response rating: Kochia ([5]; 125 g ai/ha): 90
Plant response rating (0 to 100), Lambsquarters [6]: 85
Plant response rating: Lambsquarters ([6]; 62 g ai/ha): 95
Plant response rating: Lambsquarters ([6]; 125 g ai/ha): 100
Plant response rating (0 to 100), Speedwell [7]: 100
Plant response rating: Speedwell ([7]; 62 g ai/ha): 100
Plant response rating: Speedwell ([7]; 125 g ai/ha): 100
Plant response rating (0 to 100), Mustard, Wild [8]: 70
Plant response rating: Mustard, Wild ([8]; 62 g ai/ha): 100
Plant response rating: Mustard, Wild ([8]; 125 g ai/ha): 100
Plant response rating: Blackgrass ([9]; 16 g ai/ha): 35
Plant response rating: Blackgrass ([9]; 31 g ai/ha): 55
Plant response rating: Blackgrass ([9]; 62 g ai/ha): 70
Plant response rating: Blackgrass ([9]; 125 g ai/ha): 80
Plant response rating: Russian Thistle ([10]; 16 g ai/ha): 70
Plant response rating: Russian Thistle ([10]; 31 g ai/ha): 75
Plant response rating: Russian Thistle ([10]; 62 g ai/ha): 80
Plant response rating: Russian Thistle ([10]; 125 g ai/ha): 85
Plant response rating: Field Poppy ([11]; 16 g ai/ha): 80
Plant response rating: Field Poppy ([11]; 31 g ai/ha): 95
Plant response rating: Field Poppy ([11]; 62 g ai/ha): 95
Plant response rating: Field Poppy ([11]; 125 g ai/ha): 100
Plant response rating: Oat, Wild ([12]; 16 g ai/ha): 40
Plant response rating: Oat, Wild ([12]; 31 g ai/ha): 65
Plant response rating: Oat, Wild ([12]; 62 g ai/ha): 75
Plant response rating: Oat, Wild ([12]; 125 g ai/ha): 80

FC(F)(F)COc1nc(-c2ccc(Cl)cc2)nn1Cc1ccnc(C(F)(F)F)c1 [Compound 31]
Plant response rating, Kochia ([1]; 125 g ai/ha): 90
Plant response rating, Kochia ([1]; 500 g ai/ha, approx. 10 d): 90
Plant response rating (scale of 0 to 100 where 0 is no effect and 100 is complete control) ([2]; 125 g ai/ha): 100
Plant response rating (scale of 0 to 100 where 0 is no effect and 100 is complete control) ([2]; 250 g ai/ha): 100
Pigweed plant response rating (0 to 100) ([2]; 31 g ai/ha): 98
Pigweed plant response rating (0 to 100) ([2]; 62 g ai/ha): 100
Plant response rating (scale of 0 to 100 where 0 is no effect and 100 is complete control) ([3]; 125 g ai/ha): 45
Plant response rating (scale of 0 to 100 where 0 is no effect and 100 is complete control) ([3]; 250 g ai/ha): 85
Oilseed Rape plant response rating (0 to 100) ([3]; 31 g ai/ha): 10
Oilseed Rape plant response rating (0 to 100) ([3]; 62 g ai/ha): 20
Plant response rating (0 to 100), Field Violet [4]: 95
Plant response rating: Field Violet ([4]; 62 g ai/ha): 100
Plant response rating: Field Violet ([4]; 125 g ai/ha): 100
Plant response rating (0 to 100), Kochia [5]: 80
Plant response rating: Kochia ([5]; 62 g ai/ha): 90
Plant response rating: Kochia ([5]; 125 g ai/ha): 95
Plant response rating (0 to 100), Lambsquarters [6]: 75
Plant response rating: Lambsquarters ([6]; 62 g ai/ha): 85
Plant response rating: Lambsquarters ([6]; 125 g ai/ha): 90
Plant response rating (0 to 100), Speedwell [7]: 100
Plant response rating: Speedwell ([7]; 62 g ai/ha): 100
Plant response rating: Speedwell ([7]; 125 g ai/ha): 100
Plant response rating (0 to 100), Mustard, Wild [8]: 100
Plant response rating: Mustard, Wild ([8]; 62 g ai/ha): 100
Plant response rating: Mustard, Wild ([8]; 125 g ai/ha): 100
Plant response rating: Blackgrass ([9]; 16 g ai/ha): 45
Plant response rating: Blackgrass ([9]; 31 g ai/ha): 65
Plant response rating: Blackgrass ([9]; 62 g ai/ha): 70
Plant response rating: Blackgrass ([9]; 125 g ai/ha): 80
Plant response rating: Russian Thistle ([10]; 16 g ai/ha): 70
Plant response rating: Russian Thistle ([10]; 31 g ai/ha): 80
Plant response rating: Russian Thistle ([10]; 62 g ai/ha): 85
Plant response rating: Russian Thistle ([10]; 125 g ai/ha): 90
Plant response rating: Field Poppy ([11]; 16 g ai/ha): 75
Plant response rating: Field Poppy ([11]; 31 g ai/ha): 80
Plant response rating: Field Poppy ([11]; 62 g ai/ha): 98
Plant response rating: Field Poppy ([11]; 125 g ai/ha): 100
Plant response rating: Oat, Wild ([12]; 16 g ai/ha): 35
Plant response rating: Oat, Wild ([12]; 31 g ai/ha): 45
Plant response rating: Oat, Wild ([12]; 62 g ai/ha): 70
Plant response rating: Oat, Wild ([12]; 125 g ai/ha): 75

COc1nc(-c2ccc(Cl)cc2)nn1Cc1ccnc(C(F)(F)F)c1 [Compound 28]
Plant response rating, Kochia ([1]; 125 g ai/ha): 70
Plant response rating, Kochia ([1]; 500 g ai/ha, approx. 10 d): 90
Plant response rating (0 to 100), Field Violet [4]: 65
Plant response rating: Field Violet ([4]; 62 g ai/ha): 95
Plant response rating: Field Violet ([4]; 125 g ai/ha): 100
Plant response rating (0 to 100), Kochia [5]: 85
Plant response rating: Kochia ([5]; 62 g ai/ha): 85
Plant response rating: Kochia ([5]; 125 g ai/ha): 95
Plant response rating (0 to 100), Lambsquarters [6]: 75
Plant response rating: Lambsquarters ([6]; 62 g ai/ha): 85
Plant response rating: Lambsquarters ([6]; 125 g ai/ha): 95
Plant response rating (0 to 100), Speedwell [7]: 75
Plant response rating: Speedwell ([7]; 62 g ai/ha): 100
Plant response rating: Speedwell ([7]; 125 g ai/ha): 100
Plant response rating (0 to 100), Mustard, Wild [8]: 90
Plant response rating: Mustard, Wild ([8]; 62 g ai/ha): 100
Plant response rating: Mustard, Wild ([8]; 125 g ai/ha): 100
Plant response rating: Blackgrass ([9]; 16 g ai/ha): 25
Plant response rating: Blackgrass ([9]; 31 g ai/ha): 35
Plant response rating: Blackgrass ([9]; 62 g ai/ha): 55
Plant response rating: Blackgrass ([9]; 125 g ai/ha): 60
Plant response rating: Russian Thistle ([10]; 16 g ai/ha): 70
Plant response rating: Russian Thistle ([10]; 31 g ai/ha): 75
Plant response rating: Russian Thistle ([10]; 62 g ai/ha): 85
Plant response rating: Russian Thistle ([10]; 125 g ai/ha): 85
Plant response rating: Field Poppy ([11]; 16 g ai/ha): 65
Plant response rating: Field Poppy ([11]; 31 g ai/ha): 65
Plant response rating: Field Poppy ([11]; 62 g ai/ha): 65
Plant response rating: Field Poppy ([11]; 125 g ai/ha): 70
Plant response rating: Oat, Wild ([12]; 16 g ai/ha): 30
Plant response rating: Oat, Wild ([12]; 31 g ai/ha): 40
Plant response rating: Oat, Wild ([12]; 62 g ai/ha): 45
Plant response rating: Oat, Wild ([12]; 125 g ai/ha): 50
